# Test results: patent US20230414826A1, “FIBRIN HYDROGELS” (Mayo Foundation for Medical Education and Research, priority 2020, published 2023)
# Target: T1, fibrinogen (Evicel) (Homo sapiens, UniProt P02671+P02675+P02679)
# T1 construct: purchased Ethicon (Evicel Biologically Active Component 2)
# T1 sequence (P02671 20-629 limits assumed): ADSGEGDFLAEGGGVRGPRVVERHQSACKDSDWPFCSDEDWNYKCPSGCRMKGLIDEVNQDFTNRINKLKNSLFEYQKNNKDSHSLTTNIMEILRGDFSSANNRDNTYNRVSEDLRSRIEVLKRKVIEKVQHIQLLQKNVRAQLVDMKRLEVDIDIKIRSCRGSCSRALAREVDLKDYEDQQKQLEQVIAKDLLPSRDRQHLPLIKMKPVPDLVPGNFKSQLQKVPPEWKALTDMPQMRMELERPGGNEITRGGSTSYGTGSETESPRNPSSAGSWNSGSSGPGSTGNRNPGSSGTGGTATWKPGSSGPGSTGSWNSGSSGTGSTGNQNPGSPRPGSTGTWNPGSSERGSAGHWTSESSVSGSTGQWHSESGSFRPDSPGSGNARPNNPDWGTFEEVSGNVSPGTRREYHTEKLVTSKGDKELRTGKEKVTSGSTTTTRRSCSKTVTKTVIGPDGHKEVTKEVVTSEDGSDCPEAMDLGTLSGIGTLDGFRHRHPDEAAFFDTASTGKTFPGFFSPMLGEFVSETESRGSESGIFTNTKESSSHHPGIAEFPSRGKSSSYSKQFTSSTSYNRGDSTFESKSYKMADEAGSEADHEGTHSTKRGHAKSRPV
# T1 sequence (P02675 31-491): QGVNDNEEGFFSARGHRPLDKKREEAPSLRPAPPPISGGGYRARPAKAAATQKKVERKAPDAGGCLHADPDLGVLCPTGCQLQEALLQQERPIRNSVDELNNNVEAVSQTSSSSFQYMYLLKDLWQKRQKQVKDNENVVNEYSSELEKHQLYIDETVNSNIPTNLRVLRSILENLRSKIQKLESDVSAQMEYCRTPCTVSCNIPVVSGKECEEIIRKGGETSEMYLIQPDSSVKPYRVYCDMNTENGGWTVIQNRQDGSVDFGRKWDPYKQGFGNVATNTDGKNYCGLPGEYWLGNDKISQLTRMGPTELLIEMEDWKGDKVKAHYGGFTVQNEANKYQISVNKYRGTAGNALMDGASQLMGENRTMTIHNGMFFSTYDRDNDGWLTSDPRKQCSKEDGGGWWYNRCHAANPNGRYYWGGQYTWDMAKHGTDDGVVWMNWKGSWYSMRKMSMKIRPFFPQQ
# T1 sequence (P02679 27-433 limits assumed): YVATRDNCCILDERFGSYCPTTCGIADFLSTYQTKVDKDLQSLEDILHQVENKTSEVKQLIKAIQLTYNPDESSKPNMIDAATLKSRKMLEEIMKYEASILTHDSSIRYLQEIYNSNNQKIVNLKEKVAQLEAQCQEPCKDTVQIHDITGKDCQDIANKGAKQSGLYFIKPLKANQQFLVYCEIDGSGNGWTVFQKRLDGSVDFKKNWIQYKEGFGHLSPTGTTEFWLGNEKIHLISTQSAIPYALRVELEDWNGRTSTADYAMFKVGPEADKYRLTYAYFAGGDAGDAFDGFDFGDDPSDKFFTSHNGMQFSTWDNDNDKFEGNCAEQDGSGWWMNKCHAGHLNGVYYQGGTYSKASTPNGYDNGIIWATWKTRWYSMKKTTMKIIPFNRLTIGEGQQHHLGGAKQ
# Assay: Fibrinogen clotting assay with coagulation analyzer (Clauss method), tissue glue fibrinogen
# Format: biochemical
# Conditions: for Effect on Clotting Time: screen, multiple concentrations up to 4.58 mM; for gelation time (average clotting time): 4.58 mM additive in PBS, fixed 1:20 dilution of fibrinogen (Evicel), n=10
Effect on Clotting Time,gelation time (average clotting time) [s],Molecule,further results
caused protein precipitation,,"Brilliant Blue R [BB, reference compound]",Effect on Clotting Time (listed as Brilliant Blue R (BB)): Precip
No effect,18.9 ± 3.3,"Cc1cc(N=Nc2ccc(C)c(N=Nc3cc(C)c(N)cc3N)c2)c(N)cc1N.Cl.Cl [BBr, Bismarck Brown R, reference compound]",
caused protein precipitation,,"Alcian Blue [AB, reference compound]",Effect on Clotting Time (listed as Alcian Blue (AB)): Precip
caused protein precipitation,,"CC1(C)C(/C=C/C=C/C=C/C=C2\N(CCCCS(=O)(=O)O)c3ccc4ccccc4c3C2(C)C)=[N+](CCCCS(=O)(=O)[O-])c2ccc3ccccc3c21 [ICG, Indocyanine Green, reference compound]",Effect on Clotting Time (listed as Indocyanine Green (ICG)): Precip
caused protein precipitation,,"Nc1c(/N=N/c2ccc(-c3ccc(/N=N/c4cc(S(=O)(=O)O)c5ccccc5c4N)cc3)cc2)cc(S(=O)(=O)O)c2ccccc12 [CR, Congo Red, reference compound]",Effect on Clotting Time (listed as Congo Red (CR)): Precip
No effect,18.5 ± 2.6,"O=C([O-])c1ccccc1-c1c2ccc(=O)cc-2oc2cc([O-])ccc12.[Na+].[Na+] [SF, Sodium Fluorescein, reference compound]",
